Reference: patent US20190010158A1, “ANTITUMOR EFFECT POTENTIATOR COMPRISING PYRROLOPYRIMIDINE COMPOUND” (TAIHO PHARMACEUTICAL CO., LTD, priority 2015, published 2019)
Where “and” joins values, the source holds several entries; their conditions need not be identical. Identical values can stand only once. Like-named read-outs stand apart in the source and are kept apart here.

Key:
[1] = tested on: tumor cell lines shown in Table 42; assay: Example 11: combined use with antimetabolite, cell growth inhibition test (IC50 ratio, CI); assay type: cell-based
[2] = tested on: tumor cell lines shown in Table 26; assay: Example 3: combined use with serine-threonine kinase inhibitor, cell growth inhibition test (IC50 ratio, CI); conditions: for Comprehensive Evaluation: combined use with Reference Example Compound 55
[3] = molecular target: T1, NAE (heterodimer of APPBP1 and UBA3) (Homo sapiens, UniProt Q8TBC4); assay: Nedd8 conjugation inhibitory activity (AlphaScreen); assay type: biochemical; conditions: purified NAE, GST-UBC12, ATP, Biotin-Nedd8, reaction 90 minutes
T1 construct: amino acids 1 to 463 of human UBA3 protein; made in house; host or cells: Sf9 insect cells (baculovirus co-infection) for NAE; E. coli BL21 (DE3) for GST-UBC12
T1 sequence (Q8TBC4 1-463): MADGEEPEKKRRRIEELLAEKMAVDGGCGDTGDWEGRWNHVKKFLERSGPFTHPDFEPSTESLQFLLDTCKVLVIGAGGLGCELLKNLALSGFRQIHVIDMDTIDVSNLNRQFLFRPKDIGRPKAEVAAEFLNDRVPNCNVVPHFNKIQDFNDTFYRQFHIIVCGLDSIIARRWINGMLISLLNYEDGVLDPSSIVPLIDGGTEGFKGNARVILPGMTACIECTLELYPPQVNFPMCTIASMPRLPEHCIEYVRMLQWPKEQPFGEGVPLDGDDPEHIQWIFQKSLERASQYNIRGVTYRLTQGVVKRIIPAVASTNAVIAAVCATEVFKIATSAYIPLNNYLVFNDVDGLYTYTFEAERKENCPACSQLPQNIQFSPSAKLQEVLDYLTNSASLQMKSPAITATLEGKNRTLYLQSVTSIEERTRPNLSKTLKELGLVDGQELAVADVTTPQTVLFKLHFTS
T1 sequence (Q13564 1-534 partner): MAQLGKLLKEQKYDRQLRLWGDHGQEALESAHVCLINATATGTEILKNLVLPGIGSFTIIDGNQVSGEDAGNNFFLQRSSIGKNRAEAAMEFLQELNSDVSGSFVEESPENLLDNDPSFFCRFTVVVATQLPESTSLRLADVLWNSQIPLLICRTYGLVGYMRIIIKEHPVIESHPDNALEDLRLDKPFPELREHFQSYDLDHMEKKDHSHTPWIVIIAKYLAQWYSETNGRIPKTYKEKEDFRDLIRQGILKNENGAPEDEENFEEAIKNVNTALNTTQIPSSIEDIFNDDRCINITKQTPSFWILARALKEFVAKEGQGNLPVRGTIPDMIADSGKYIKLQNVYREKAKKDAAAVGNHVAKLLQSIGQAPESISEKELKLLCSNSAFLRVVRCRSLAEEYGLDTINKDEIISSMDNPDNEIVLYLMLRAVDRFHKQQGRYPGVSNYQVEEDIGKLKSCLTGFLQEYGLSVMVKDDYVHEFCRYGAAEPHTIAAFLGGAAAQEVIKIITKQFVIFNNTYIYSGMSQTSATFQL

[4] = tested on: human acute T lymphoblastic leukemia CCRF-CEM cell lines; assay: Cell growth inhibition 1 (CellTiter-Glo); assay type: cell-based; conditions: culture with test compound 72 hours
[5] = TMD-8, IC50 of Reference Example Compound 55 : IC50 of other compound = 1:value
[6] = A431, IC50 of Reference Example Compound 55 : IC50 of other compound = 1:value
[7] = A431, combined use with Reference Example Compound 55
[8] = A549, IC50 of Reference Example Compound 55 : IC50 of other compound = 1:value

Which results are given for `Sc1ncnc2nc[nH]c12` [6-Mercaptopurine, 6-mercaptopurine]?
IC50 Ratio ([1]; MM.1S, IC50 of Reference Example Compound 55 : IC50 of other compound = 1:value): 169; CI ([1]; MM.1S, Reference Example Compound 55:other compound 1:100, at ED50): 0.61; CI ([1]; MM.1S, Reference Example Compound 55:other compound 1:300, at ED50): 0.80; Comprehensive Evaluation ([1]; MM.1S, combined use with Reference Example Compound 55): Moderate

Which CI [1] does the source give for `Nc1ccn([C@@H]2O[C@H](CO)[C@@H](O)[C@@H]2O)c(=O)n1` [Cytarabine, cytarabine] here?
The CI was 0.52 and 0.66.

What about the “IC50 Ratio” value [1] of the same molecule?
The value was 48.

And the “Comprehensive Evaluation” value ([1]; HCT116, combined use with Reference Example Compound 55)?
Its value is “Synergism (0.3-0.7)”.

How did the “IC50 Ratio” value [2, 5] turn out when `C[C@H](Nc1ncnc2nc[nH]c12)c1cc2cccc(Cl)c2c(=O)n1-c1ccccc1` [Duvelisib, duvelisib] was run?
The value was 2.

What about the CI ([2]; TMD-8, Reference Example Compound 55:other compound 1:1.2, at ED50) of the same molecule?
The CI was 0.42.

What about the CI ([2]; TMD-8, Reference Example Compound 55:other compound 1:3.7, at ED50) of the same molecule?
The CI was 0.43.

And the “Comprehensive Evaluation” value ([2]; TMD-8)?
The value was “Synergism (0.3-0.7)”.

For `CO[C@H]1C[C@@H]2CC[C@@H](C)[C@@](O)(O2)C(=O)C(=O)N2CCCC[C@H]2C(=O)O[C@H]([C@H](C)C[C@@H]2CC[C@@H](OCCO)[C@H](OC)C2)CC(=O)[C@H](C)/C=C(\C)[C@@H](O)[C@@H](OC)C(=O)[C@H](C)C[C@H](C)/C=C/C=C/C=C/1C` [Everolimus, everolimus], which “IC50 Ratio” value ([2]; VMRC-RCW, IC50 of Reference Example Compound 55 : IC50 of other compound = 1:value) is on record?
Its value is 6.

And the “Comprehensive Evaluation” value ([2]; VMRC-RCW)?
Its value is “Synergism (0.3-0.7)”.

What does the source list for `O=c1[nH]cc(F)c(=O)[nH]1` [Fluorouracil, fluorouracil]?
IC50 Ratio [1, 6]: 0.8; CI ([1]; A431, Reference Example Compound 55:other compound 1:0.56, at ED50): 0.44; CI ([1]; A431, Reference Example Compound 55:other compound 1:1.67, at ED50): 0.20; Comprehensive Evaluation [1, 7]: Synergism (0.3-0.7)

How did the “IC50 Ratio” value [1, 6] turn out when `Nc1ccn([C@@H]2O[C@H](CO)[C@@H](O)C2(F)F)c(=O)n1` [Gemcitabine, gemcitabine] was run?
Its value is 0.01.

What about the CI ([1]; A431, Reference Example Compound 55:other compound 1:0.007, at ED50) of the same molecule?
Its CI is 0.70.

What about the CI ([1]; A431, Reference Example Compound 55:other compound 1:0.02, at ED50) of the same molecule?
Its CI is 0.49.

And the “Comprehensive Evaluation” value [1, 7]?
The value was “Synergism (0.3-0.7)”.

Which “IC50 Ratio” value [2, 5] does the source give for `CC[C@H](Nc1ncnc2[nH]cnc12)c1nc2cccc(F)c2c(=O)n1-c1ccccc1` [Idelalisib, idelalisib] here?
Its value is 23.

What about the CI ([2]; TMD-8, Reference Example Compound 55:other compound 1:11, at ED50) of the same molecule?
The CI was 0.57.

And the CI ([2]; TMD-8, Reference Example Compound 55:other compound 1:33, at ED50)?
Its CI is 0.64.

And the “Comprehensive Evaluation” value ([2]; TMD-8)?
Its value is “Synergism (0.3-0.7)”.

How did the “IC50 Ratio” value [2, 8] turn out when `NC1(c2ccc(-c3nc4ccn5c(=O)[nH]nc5c4cc3-c3ccccc3)cc2)CCC1` [MK2206] was run?
Its value is 5.

And the CI ([2]; A549, Reference Example Compound 55:other compound 1:3, at ED50)?
Its CI is 0.31.

What about the CI ([2]; A549, Reference Example Compound 55:other compound 1:9, at ED50) of the same molecule?
The CI was 0.35.

What about the “Comprehensive Evaluation” value ([2]; A549) of the same molecule?
Its value is “Synergism (0.3-0.7)”.

Which results are given for `Nc1nc2[nH]cc(CCc3ccc(C(=O)N[C@@H](CCC(=O)O)C(=O)O)cc3)c2c(=O)[nH]1` [Pemetrexed, pemetrexed]?
CI [1]: 0.73 and 0.55; Comprehensive Evaluation [1]: Moderate; IC50 Ratio [1]: 34

What does the source list for `CO[C@H]1C[C@@H]2CC[C@@H](C)[C@@](O)(O2)C(=O)C(=O)N2CCCC[C@H]2C(=O)O[C@H]([C@H](C)C[C@@H]2CC[C@@H](O)[C@H](OC)C2)CC(=O)[C@H](C)/C=C(\C)[C@@H](O)[C@@H](OC)C(=O)[C@H](C)C[C@H](C)/C=C/C=C/C=C/1C` [Rapamycin, rapamycin]?
IC50 Ratio [2, 8]: 0.1; Comprehensive Evaluation ([2]; A549): Synergism (0.3-0.7)

How did the IC50 [3] turn out when `CS(=O)(=O)c1ccccc1C#Cc1cn([C@@H]2O[C@H](CNS(N)(=O)=O)[C@@H](O)[C@H]2O)c2ncnc(N)c12` [Reference Example 22, 4-Amino-7-[(2R,3R,4S,5R)-3,4-dihydroxy-5-[(sulfamoylamino)methyl]tetrahydrofuran-2-yl]-5-[2-(2-methylsulfonylphenyl)ethynyl]pyrrolo[2,3-d]pyrimidine] was run?
The IC50 was ≤ 0.003 µM.

With `Nc1ncnc2c1c(C#Cc1c(F)cc(N3CCOCC3)cc1F)cn2[C@@H]1O[C@H](CNS(N)(=O)=O)[C@@H](O)[C@H]1O` [Reference Example 23, 4-[4-[2-[4-Amino-7-[(2R,3R,4S,5R)-3,4-dihydroxy-5-[(sulfamoylamino)methyl]tetrahydrofuran-2-yl]pyrrolo[2,3-d]pyrimidin-5-yl]ethynyl]-3,5-difluoro-phenyl]morpholine] as the molecule, how does the IC50 [3] read?
Its IC50 is ≤ 0.003 µM.

How did the IC50 [3] turn out when `Nc1cc(F)c(C#Cc2cn([C@@H]3O[C@H](CNS(N)(=O)=O)[C@@H](O)[C@H]3O)c3ncnc(N)c23)c(F)c1` [Reference Example 24, 4-Amino-5-[2-(4-amino-2,6-difluoro-phenyl)ethynyl]-7-[(2R,3R,4S,5R)-3,4-dihydroxy-5-[(sulfamoylamino)methyl]tetrahydrofuran-2-yl]pyrrolo[2,3-d]pyrimidine] was run?
The IC50 was ≤ 0.003 µM.

With `Nc1ncnc2c1c(C#Cc1c(F)cc(N3CCC(C(=O)O)C3)cc1F)cn2[C@@H]1O[C@H](CNS(N)(=O)=O)[C@@H](O)[C@H]1O` (stereo partly drawn) [Reference Example 41, 1-[4-[2-[4-amino-7-[(2R,3R,4S,5R)-3,4-dihydroxy-5-[(sulfamoylamino)methyl]tetrahydrofuran-2-yl]pyrrolo[2,3-d]pyrimidin-5-yl]ethynyl]-3,5-difluoro-phenyl]pyrrolidine-3-carboxylic Acid] as the molecule, how does the IC50 [3] read?
Its IC50 is ≤ 0.003 µM.

Which IC50 [3] does the source give for `CCOc1cccc(F)c1C#Cc1cn([C@@H]2O[C@H](CNS(N)(=O)=O)[C@@H](O)[C@H]2O)c2ncnc(N)c12` [Reference Example 55, 4-Amino-7-[(2R,3R,4S,5R)-3,4-dihydroxy-5-[(sulfamoylamino)methyl]tetrahydrofuran-2-yl]-5-[2-(2-ethoxy-6-fluoro-phenyl)ethynyl]pyrrolo[2,3-d]pyrimidine] here?
Its IC50 is ≤ 0.003 µM.

`COC(=O)c1cc(F)c(C#Cc2cn([C@@H]3O[C@H](CNS(N)(=O)=O)[C@@H](O)[C@H]3O)c3ncnc(N)c23)c(F)c1` [Reference Example 58, Methyl 4-[2-[4-amino-7-[(2R,3R,4S,5R)-3,4-dihydroxy-5-[(sulfamoylamino)methyl]tetrahydrofuran-2-yl]pyrrolo[2,3-d]pyrimidin-5-yl]ethynyl]-3,5-difluoro-benzoate] was tested. Which IC50 [3] did it give?
The IC50 was ≤ 0.003 µM.

For `Nc1ncnc2c1c(C#Cc1c(F)cc(N3CC[C@@H](O)C3)cc1F)cn2[C@@H]1C[C@H](CNS(N)(=O)=O)[C@@H](O)[C@H]1O` [Reference Example 120, 4-Amino-5-[2-[2,6-difluoro-4-[(3R)-3-hydroxypyrrolidin-1-yl]phenyl]ethynyl]-7-[(1R,2S,3R,4R)-2,3-dihydroxy-4-[(sulfamoylamino)methyl]cyclopentyl]pyrrolo[2,3-d]pyrimidine], which IC50 [4] is on record?
Its IC50 is 35 nM.

For `Nc1ncnc2c1c(C#Cc1cccc3c1S(=O)(=O)CCC3)cn2[C@@H]1C[C@H](CNS(N)(=O)=O)[C@@H](O)[C@H]1O` [Reference Example 123, 4-Amino-7-[(1R,2S,3R,4R)-2,3-dihydroxy-4-[(sulfamoylamino)methyl]cyclopentyl]-5-[2-(1,1-dioxo-3,4-dihydro-2H-thiochromen-8-yl)ethynyl]pyrrolo[2,3-d]pyrimidine], which IC50 [4] is on record?
Its IC50 is 97 nM.

With `O=c1[nH]c(=O)n([C@H]2C[C@H](O)[C@@H](CO)O2)cc1C(F)(F)F` [Trifluridine, trifluridine] as the molecule, how does the “IC50 Ratio” value [1, 6] read?
Its value is 0.5.

What about the CI ([1]; A431, Reference Example Compound 55:other compound 1:0.33, at ED50) of the same molecule?
The CI was 1.06.

What about the CI ([1]; A431, Reference Example Compound 55:other compound 1:1, at ED50) of the same molecule?
Its CI is 0.74.

And the “Comprehensive Evaluation” value [1, 7]?
The value was “Additive (0.9-1.10)”.

Which results are given for `CC[C@@H]1C(=O)N(C)c2cnc(Nc3ccc(C(=O)N[C@H]4CC[C@H](N5CCN(CC6CC6)CC5)CC4)cc3OC)nc2N1C(C)C` [Volasertib, volasertib]?
IC50 Ratio ([2]; HL-60, IC50 of Reference Example Compound 55 : IC50 of other compound = 1:value): 14; CI ([2]; HL-60, Reference Example Compound 55:other compound 1:11, at ED50): 0.95; CI ([2]; HL-60, Reference Example Compound 55:other compound 1:33, at ED50): 0.82; Comprehensive Evaluation ([2]; HL-60): Additive (0.9-1.10)

Which results are given for AZD5363?
CI [2]: 0.33 and 0.38; IC50 Ratio [2]: 67
